Legend:
Format in all cases: in vivo
[1] = tested on: barnyardgrass (Echinochloa crus-galli); experiment: Test A preemergence, barnyardgrass; details: Preemergence; for Barnyardgrass plant response rating: 125 g ai/ha, visual injury on 0 to 100 scale (0 no effect, 100 complete control), approximately 10 days; for Plant response rating, Barnyardgrass: 500 g ai/ha, 0 to 100 scale (0 no effect, 100 complete control)
Outline: (§1)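 Seeds are sown in loam mixed with sand and sprayed on the soil surface right after planting for the preemergence test. Postemergence pots are sprayed once seedlings reach 2 to 10 cm at the one- to two-leaf stage. The same surfactant-containing, non-phytotoxic solvent formulation serves both.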

kochia (Bassia scoparia) [2] = experiment: Test A preemergence, kochia; details: Preemergence; for Kochia plant response rating: 125 g ai/ha, visual injury on 0 to 100 scale (0 no effect, 100 complete control), approximately 10 days; for Plant response rating, Kochia: 500 g ai/ha, 0 to 100 scale (0 no effect, 100 complete control)
Outline: as §1

[3] = tested on: ragweed (common ragweed, Ambrosia artemisiifolia); experiment: Test A preemergence, ragweed; details: Preemergence; for Ragweed plant response rating: 125 g ai/ha, visual injury on 0 to 100 scale (0 no effect, 100 complete control), approximately 10 days; for Plant response rating, Ragweed: 500 g ai/ha, 0 to 100 scale (0 no effect, 100 complete control)
Outline: as §1

[4] = tested on: Ryegrass, Italian (Italian ryegrass, Lolium multiflorum); experiment: Test A preemergence, Ryegrass, Italian; details: Preemergence; for Ryegrass, Italian plant response rating: 125 g ai/ha, visual injury on 0 to 100 scale (0 no effect, 100 complete control), approximately 10 days; for Plant response rating, Ryegrass, Italian: 500 g ai/ha, 0 to 100 scale (0 no effect, 100 complete control)
Outline: as §1

[5] = tested on: Foxtail, Giant (giant foxtail, Setaria faberi); experiment: Test A preemergence, Foxtail, Giant; details: Preemergence; for Foxtail, Giant plant response rating: 125 g ai/ha, visual injury on 0 to 100 scale (0 no effect, 100 complete control), approximately 10 days; for Plant response rating, Foxtail, Giant: 500 g ai/ha, 0 to 100 scale (0 no effect, 100 complete control)
Outline: as §1

[6] = tested on: pigweed (Amaranthus retroflexus); experiment: Test A preemergence, pigweed; details: for Pigweed plant response rating: 125 g ai/ha, visual injury on 0 to 100 scale (0 no effect, 100 complete control), approximately 10 days; for Plant response rating, Pigweed: 500 g ai/ha, 0 to 100 scale (0 no effect, 100 complete control)
Outline: (§2)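 Directed soil spray at planting gave the preemergence treatment, while foliar application to one- to two-leaf seedlings (2–10 cm) gave the postemergence one; pots held a loam and sand mixture and chemicals were carried in a non-phytotoxic solvent with surfactant.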

[7] = tested on: barnyardgrass (Echinochloa crus-galli); experiment: Test A postemergence, barnyardgrass; details: Postemergence, 0 to 100 scale (0 no effect, 100 complete control)
Outline: as §2

kochia (Bassia scoparia) [8] = experiment: Test A postemergence, kochia; details: Postemergence, 0 to 100 scale (0 no effect, 100 complete control)
Outline: as §1

[9] = tested on: ragweed (common ragweed, Ambrosia artemisiifolia); experiment: Test A postemergence, ragweed; details: Postemergence, 0 to 100 scale (0 no effect, 100 complete control)
Outline: as §1

[10] = tested on: Ryegrass, Italian (Italian ryegrass, Lolium multiflorum); experiment: Test A postemergence, Ryegrass, Italian; details: Postemergence, 0 to 100 scale (0 no effect, 100 complete control)
Outline: as §1

[11] = tested on: Foxtail, Giant (giant foxtail, Setaria faberi); experiment: Test A postemergence, Foxtail, Giant; details: Postemergence, 0 to 100 scale (0 no effect, 100 complete control)
Outline: as §1

[12] = tested on: pigweed (Amaranthus retroflexus); experiment: Test A postemergence, pigweed; details: Postemergence, 0 to 100 scale (0 no effect, 100 complete control)
Outline: as §1

[13] = tested on: wheat (Triticum aestivum); experiment: Test A postemergence, wheat; details: Postemergence, 0 to 100 scale (0 no effect, 100 complete control)
Outline: as §2

corn (Zea mays) = experiment: Test A postemergence, corn; details: Postemergence, 0 to 100 scale (0 no effect, 100 complete control)
Outline: as §1

[14] = tested on: blackgrass (Alopecurus myosuroides); experiment: Test A postemergence, blackgrass; details: Postemergence, 0 to 100 scale (0 no effect, 100 complete control)
Outline: as §1

[15] = tested on: galium (catchweed bedstraw, Galium aparine); experiment: Test A postemergence, galium; details: Postemergence, 0 to 100 scale (0 no effect, 100 complete control)
Outline: as §2

[16] = 125 g ai/ha, visual injury approx. 10 days
[17] = 500 g ai/ha, visual injury, approx. 10 days
[18] = 500 g ai/ha, visual injury vs untreated controls after approx. 10 days

Row | SMILES | Barnyardgrass plant response rating [1] | Plant response rating, Barnyardgrass [1] | Kochia plant response rating (kochia (Bassia scoparia) [2]) | Plant response rating, Kochia (kochia (Bassia scoparia) [2]) | Ragweed plant response rating [3] | Plant response rating, Ragweed [3] | Ryegrass, Italian plant response rating [4] | Plant response rating, Ryegrass, Italian [4] | Foxtail, Giant plant response rating [5] | Plant response rating, Foxtail, Giant [5] | Pigweed plant response rating [6] | Plant response rating, Pigweed [6] | Plant response rating, Barnyardgrass [7, 16] | Plant response rating, Kochia (kochia (Bassia scoparia) [8]; [16]) | Plant response rating, Ragweed [9, 16] | Plant response rating, Ryegrass, Italian [10, 16] | Plant response rating, Foxtail, Giant [11, 16] | Plant response rating, Pigweed [12, 16] | Plant response rating, Wheat [13, 16] | Plant response rating, Corn (corn (Zea mays); [16]) | other results
1 | Cc1cc(C)c(N(S(=O)(=O)C(F)(F)F)S(=O)(=O)C(F)(F)F)cc1-c1cn(C)c(=O)n(C)c1=O [Compound 42] | 90 | 100 | 40 | 70 | 30 | 80 | 100 | 100 | 100 | 100 | 40 | 80 | 70 | 20 | 40 | 70 | 90 | 40 | 70 | 0 | Plant response rating, Barnyardgrass [7, 17]: 80; Plant response rating, Kochia (kochia (Bassia scoparia) [8]; [17]): 30; Plant response rating, Ragweed [9, 17]: 80; Plant response rating, Ryegrass, Italian [10, 17]: 80; Plant response rating, Foxtail, Giant [11, 17]: 90; Plant response rating, Pigweed [12, 17]: 100; Plant response rating, Wheat [13, 17]: 70; Plant response rating, Corn (corn (Zea mays); [17]): 60; Plant response rating, Blackgrass [14, 16]: 40; Plant response rating, Blackgrass [14, 17]: 90; Plant response rating, Galium [15, 16]: 50; Plant response rating, Galium [15, 17]: 60
2 | CCn1cc(-c2cc(N(S(=O)(=O)C(F)(F)F)S(=O)(=O)C(F)(F)F)c(C)cc2C)c(=O)n(CC)c1=O [Compound 43] | 90 | 100 | 0 | 90 | 0 | 0 | 100 | 100 | 100 | 100 | 20 | 60 | 90 | 20 | 60 | 20 | 90 | 80 | 70 | 10 | Plant response rating, Barnyardgrass [7, 17]: 90; Plant response rating, Kochia (kochia (Bassia scoparia) [8]; [17]): 40; Plant response rating, Ragweed [9, 17]: 60; Plant response rating, Ryegrass, Italian [10, 17]: 50; Plant response rating, Foxtail, Giant [11, 17]: 90; Plant response rating, Pigweed [12, 17]: 80; Plant response rating, Wheat [13, 17]: 70; Plant response rating, Corn (corn (Zea mays); [17]): 80; Plant response rating, Blackgrass [14, 16]: 70; Plant response rating, Blackgrass [14, 17]: 90; Plant response rating, Galium [15, 16]: 70; Plant response rating, Galium [15, 17]: 90
3 | CCn1cc(-c2cc(NS(=O)(=O)C(F)(F)F)c(C)cc2C)c(=O)n(CC)c1=O [Compound 44] | 100 | 100 | 0 | 60 | 0 | 10 | 100 | 100 | 100 | 100 | 40 | 100 | 90 | 10 | 20 | 30 | 90 | 80 | 70 | 0 | Barnyardgrass plant response rating [7, 18]: 90; Kochia plant response rating (kochia (Bassia scoparia) [8]; [18]): 30; Ragweed plant response rating [9, 18]: 50; Ryegrass, Italian plant response rating [10, 18]: 30; Foxtail, Giant plant response rating [11, 18]: 90; Pigweed plant response rating [12, 18]: 90; Wheat plant response rating [13, 18]: 70; Corn plant response rating (corn (Zea mays); [18]): 70; Plant response rating, Blackgrass [14, 16]: 80; Blackgrass plant response rating [14, 18]: 90; Plant response rating, Galium [15, 16]: 80; Galium plant response rating [15, 18]: 90
